In paper doi:10.1101/2020.08.04.236091v1 (biorxiv, 2020):

Target: T1, MdomOR30a (co-expressed with MdomOrco) (Musca domestica, UniProt A0A1I8MP03)
T1 sequence (A0A1I8MP03 1-373): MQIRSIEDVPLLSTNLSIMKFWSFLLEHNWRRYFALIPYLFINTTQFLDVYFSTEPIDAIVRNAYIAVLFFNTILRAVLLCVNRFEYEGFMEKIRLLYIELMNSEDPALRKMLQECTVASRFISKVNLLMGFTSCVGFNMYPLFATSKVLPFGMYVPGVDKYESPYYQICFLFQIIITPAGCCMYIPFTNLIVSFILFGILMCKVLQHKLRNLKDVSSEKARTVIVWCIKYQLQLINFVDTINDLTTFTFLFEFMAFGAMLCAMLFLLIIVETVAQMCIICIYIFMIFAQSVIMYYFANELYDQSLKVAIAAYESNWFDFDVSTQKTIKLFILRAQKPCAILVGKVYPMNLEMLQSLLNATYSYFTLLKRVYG
T1 sequence (I0E1X6 1-478 partner): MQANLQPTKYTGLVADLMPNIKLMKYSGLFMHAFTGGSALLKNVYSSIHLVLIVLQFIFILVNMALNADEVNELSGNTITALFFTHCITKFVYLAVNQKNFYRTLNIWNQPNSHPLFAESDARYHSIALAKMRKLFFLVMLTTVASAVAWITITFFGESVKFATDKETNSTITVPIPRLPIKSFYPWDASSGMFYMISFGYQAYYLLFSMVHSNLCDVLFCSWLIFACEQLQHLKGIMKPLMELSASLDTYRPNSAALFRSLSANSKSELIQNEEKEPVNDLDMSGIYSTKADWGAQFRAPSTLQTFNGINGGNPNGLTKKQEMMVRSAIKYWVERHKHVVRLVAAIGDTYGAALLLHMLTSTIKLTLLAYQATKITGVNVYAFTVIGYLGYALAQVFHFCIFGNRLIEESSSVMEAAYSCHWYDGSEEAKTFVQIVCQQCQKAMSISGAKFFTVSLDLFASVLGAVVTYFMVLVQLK
Test: two-electrode voltage clamp, Xenopus oocytes, odorant-induced currents
Format: cell-based

## Cc1[nH]c2ccccc2c1C [2,3-dimethylindole]
  EC50: 7.04 µM

## Cc1c[nH]c2ccccc12 [3-methylindole]
  EC50: 0.331 µM

## c1ccc2[nH]ccc2c1 [indole]
  EC50: 5.2 µM
